These compounds were tested against JAK2 (JH1 domain-catalytic, Y1007F, Y1008F) kinase (Homo sapiens (Human), UniProt O60674, Y1007F/Y1008F) (assay: JAK2 JH1 Domain Binding Assay). Details: qPCR readout.
JAK2 (JH1 domain-catalytic, Y1007F, Y1008F) kinase, sequence (O60674 849-1124 Y1007F/Y1008F): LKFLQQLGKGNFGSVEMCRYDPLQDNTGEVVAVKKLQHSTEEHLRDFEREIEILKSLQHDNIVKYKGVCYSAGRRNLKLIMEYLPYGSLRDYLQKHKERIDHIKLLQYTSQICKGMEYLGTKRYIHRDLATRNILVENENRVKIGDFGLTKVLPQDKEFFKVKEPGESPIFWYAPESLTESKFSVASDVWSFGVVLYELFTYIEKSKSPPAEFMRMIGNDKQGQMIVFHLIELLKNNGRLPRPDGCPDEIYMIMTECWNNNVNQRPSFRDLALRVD
Procedure, shortened: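 Competitive binding format: test compound, DNA-tagged JAK2 JH1 (Y1007F/Y1008F; HEK293-expressed NFkB fusion) and ligand-coated magnetic beads incubated 1 h at room temperature. Kinase retained on beads released with 0.5 μmol/L non-biotinylated ligand, then measured by qPCR.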
Cn1cc(C(F)(F)F)cc(NC(=O)N2CCO[C@H]3CN(c4cnc5[nH]ccc5n4)CC[C@@H]32)c1=O [Example I-128-a, (4aS,8aS)-N-(1-methyl-2-oxo-5-(trifluoromethyl)-1,2-dihydropyridin-3-yl)-6-(5H-pyrrolo[2,3-b]pyrazin-2-yl)octahydro-1H-pyrido[3,4-b][1,4]oxazine-1-carboxamide] gave a Kd of 10 to 50 nM. Cn1cc(C(F)(F)F)cc(NC(=O)N2CCO[C@@H]3CN(c4cnc5[nH]ccc5n4)CC[C@H]32)c1=O [Example I-128-b, (4aR,8aR)-N-(1-methyl-2-oxo-5-(trifluoromethyl)-1,2-dihydropyridin-3-yl)-6-(5H-pyrrolo[2,3-b]pyrazin-2-yl)octahydro-1H-pyrido[3,4-b][1,4]oxazine-1-carboxamide] gave a Kd of under 10 nM. CN(C(=O)Nc1cc(C(F)(F)F)cn(C)c1=O)C1CCN(c2cnn3cc(O[C@@H]4CC[C@H]4O)ncc23)CC1 [Example I-129-a, 1-(1-(6-((1R,2R)-2-hydroxycyclobutoxy)pyrazolo[1,5-a]pyrazin-3-yl)piperidin-4-yl)-1-methyl-3-(1-methyl-2-oxo-5-(trifluoromethyl)-1,2-dihydropyridin-3-yl)urea] was tested, and the Kd was under 10 nM. In the case of CN(C(=O)Nc1cc(C(F)(F)F)cn(C)c1=O)C1CCN(c2cnn3cc(O[C@H]4CC[C@@H]4O)ncc23)CC1 [Example I-129-b, 1-(1-(6-((1S,2S)-2-hydroxycyclobutoxy)pyrazolo[1,5-a]pyrazin-3-yl)piperidin-4-yl)-1-methyl-3-(1-methyl-2-oxo-5-(trifluoromethyl)-1,2-dihydropyridin-3-yl)urea], the Kd is reported as under 10 nM. Compound CO[C@H]1C[C@@H](n2[nH]c3ncc(N4CCC(N(C)C(=O)Nc5cc(C(F)(F)F)cn(C)c5=O)CC4)cc3c2=O)C1 [Example I-130, 1-(1-(2-((1s,3s)-3-methoxycyclobutyl)-3-oxo-2,3-dihydro-1H-pyrazolo[3,4-b]pyridin-5-yl)piperidin-4-yl)-1-methyl-3-(1-methyl-2-oxo-5-(trifluoromethyl)-1,2-dihydropyridin-3-yl)urea] has a Kd of 50 to 1000 nM. Work on COc1n[nH]c2ncc(N3CC[C@H](N(C)C(=O)Nc4cc(C(F)(F)F)cn(C)c4=O)[C@H](C)C3)cc12 [Example I-131-a, 1-((3R,4S)-1-(3-methoxy-1H-pyrazolo[3,4-b]pyridin-5-yl)-3-methylpiperidin-4-yl)-1-methyl-3-(1-methyl-2-oxo-5-(trifluoromethyl)-1,2-dihydropyridin-3-yl)urea] yielded a Kd of under 10 nM. COCCOc1n[nH]c2ncc(N3CC[C@H](N(C)C(=O)Nc4cc(C(F)(F)F)cn(C)c4=O)C[C@@H]3C)cc12 [Example I-132-a, 1-((2S,4S)-1-(3-(2-methoxyethoxy)-1H-pyrazolo[3,4-b]pyridin-5-yl)-2-methylpiperidin-4-yl)-1-methyl-3-(1-methyl-2-oxo-5-(trifluoromethyl)-1,2-dihydropyridin-3-yl)urea] showed a Kd of 10 to 50 nM. For COCCOc1n[nH]c2ncc(N3CC[C@@H](N(C)C(=O)Nc4cc(C(F)(F)F)cn(C)c4=O)C[C@H]3C)cc12 [Example I-132-b, 1-((2R,4R)-1-(3-(2-methoxyethoxy)-1H-pyrazolo[3,4-b]pyridin-5-yl)-2-methylpiperidin-4-yl)-1-methyl-3-(1-methyl-2-oxo-5-(trifluoromethyl)-1,2-dihydropyridin-3-yl)urea], the Kd was 10 to 50 nM. COc1n[nH]c2ncc(N3CC[C@H](N(C)C(=O)Nc4cc(C(F)(F)F)cn(C)c4=O)C[C@@H]3C)cc12 [Example I-133-a, 1-((2S,4S)-1-(3-methoxy-1H-pyrazolo[3,4-b]pyridin-5-yl)-2-methylpiperidin-4-yl)-1-methyl-3-(1-methyl-2-oxo-5-(trifluoromethyl)-1,2-dihydropyridin-3-yl)urea] was tested, and the Kd was under 10 nM. In the case of COc1n[nH]c2ncc(N3CC[C@@H](N(C)C(=O)Nc4cc(C(F)(F)F)cn(C)c4=O)C[C@H]3C)cc12 [Example I-133-b, 1-((2R,4R)-1-(3-methoxy-1H-pyrazolo[3,4-b]pyridin-5-yl)-2-methylpiperidin-4-yl)-1-methyl-3-(1-methyl-2-oxo-5-(trifluoromethyl)-1,2-dihydropyridin-3-yl)urea], the Kd is reported as under 10 nM. With CC(=O)Nc1cnc(N2CC[C@H](N(C)C(=O)Nc3cc(C(F)(F)F)cn(C)c3=O)C[C@@H]2C)cn1 [Example I-134-a, N-(5-((2S,4S)-2-methyl-4-(1-methyl-3-(1-methyl-2-oxo-5-(trifluoromethyl)-1,2-dihydropyridin-3-yl)ureido)piperidin-1-yl)pyrazin-2-yl)acetamide] the Kd was 50 to 1000 nM. For CC(=O)Nc1cnc(N2CC[C@@H](N(C)C(=O)Nc3cc(C(F)(F)F)cn(C)c3=O)C[C@H]2C)cn1 [Example I-134-b, N-(5-((2R,4R)-2-methyl-4-(1-methyl-3-(1-methyl-2-oxo-5-(trifluoromethyl)-1,2-dihydropyridin-3-yl)ureido)piperidin-1-yl)pyrazin-2-yl)acetamide], the Kd was 10 to 50 nM. C[C@@H]1C[C@H](N(C)C(=O)Nc2cc(C(C)(C)C)n([C@H]3C[C@H](O)C3)n2)CCN1c1cnc2[nH]ncc2c1 [Example I-135-a, 3-(5-(tert-butyl)-1-((1r,3R)-3-hydroxycyclobutyl)-1H-pyrazol-3-yl)-1-methyl-1-((2R,4R)-2-methyl-1-(1H-pyrazolo[3,4-b]pyridin-5-yl)piperidin-4-yl)urea] gave a Kd of 10 to 50 nM. Work on C[C@H]1C[C@@H](N(C)C(=O)Nc2cc(C(C)(C)C)n([C@H]3C[C@H](O)C3)n2)CCN1c1cnc2[nH]ncc2c1 [Example I-135-b, 3-(5-(tert-butyl)-1-((1r,3S)-3-hydroxycyclobutyl)-1H-pyrazol-3-yl)-1-methyl-1-((2S,4S)-2-methyl-1-(1H-pyrazolo[3,4-b]pyridin-5-yl)piperidin-4-yl)urea] yielded a Kd of 50 to 1000 nM. COc1n[nH]c2ncc(N3CCC(N(C)C(=O)Nc4cc(C5CC5)cn([C@H]5CCCOC5)c4=O)CC3)cc12 [Example I-136-a, (S)-3-(5-cyclopropyl-2-oxo-1-(tetrahydro-2H-pyran-3-yl)-1,2-dihydropyridin-3-yl)-1-(1-(3-methoxy-1H-pyrazolo[3,4-b]pyridin-5-yl)piperidin-4-yl)-1-methylurea] was tested, and the Kd was under 10 nM. For COc1n[nH]c2ncc(N3CCC(N(C)C(=O)Nc4cc(C5CC5)cn([C@@H]5CCCOC5)c4=O)CC3)cc12 [Example I-136-b, (R)-3-(5-cyclopropyl-2-oxo-1-(tetrahydro-2H-pyran-3-yl)-1,2-dihydropyridin-3-yl)-1-(1-(3-methoxy-1H-pyrazolo[3,4-b]pyridin-5-yl)piperidin-4-yl)-1-methylurea], the Kd was under 10 nM. COc1cc(NC(=O)C2CC2)ncc1N1CCC(N(C)C(=O)Nc2cc(C(F)(F)F)cn(C)c2=O)CC1 [Example I-137, N-(4-methoxy-5-(4-(1-methyl-3-(1-methyl-2-oxo-5-(trifluoromethyl)-1,2-dihydropyridin-3-yl)ureido)piperidin-1-yl)pyridin-2-yl)cyclopropanecarboxamide] gave a Kd of 10 to 50 nM. In the case of COc1n[nH]c2ncc(N3CCC(N(C)C(=O)Nc4cc(C(F)(F)F)ccn4)CC3)cc12 [Example I-138, 1-(1-(3-methoxy-1H-pyrazolo[3,4-b]pyridin-5-yl)piperidin-4-yl)-1-methyl-3-(4-(trifluoromethyl)pyridin-2-yl)urea], the Kd is reported as under 10 nM. For COc1n[nH]c2ncc(N3CCC(N(C)C(=O)Nc4cncc(C(F)(F)F)c4)CC3)cc12 [Example I-139, 1-(1-(3-methoxy-1H-pyrazolo[3,4-b]pyridin-5-yl)piperidin-4-yl)-1-methyl-3-(5-(trifluoromethyl)pyridin-3-yl)urea], the Kd was under 10 nM. CC(=O)Nc1cnc(C2=CC[C@@H](N(C)C(=O)Nc3cc(C(F)(F)F)cn(C)c3=O)CC2)cn1 [Example I-140-a, (S)—N-(5-(4-(1-methyl-3-(1-methyl-2-oxo-5-(trifluoromethyl)-1,2-dihydropyridin-3-yl)ureido)cyclohex-1-en-1-yl)pyrazin-2-yl)acetamide] showed a Kd of under 10 nM. CC(=O)Nc1cnc(C2=CC[C@H](N(C)C(=O)Nc3cc(C(F)(F)F)cn(C)c3=O)CC2)cn1 [Example I-140-b, (R)—N-(5-(4-(1-methyl-3-(1-methyl-2-oxo-5-(trifluoromethyl)-1,2-dihydropyridin-3-yl)ureido)cyclohex-1-en-1-yl)pyrazin-2-yl)acetamide] was tested, and the Kd was under 10 nM. With Cn1cc(C(F)(F)F)cc(NC(=O)N(C)[C@H]2CC[C@@H](c3cnc4[nH]cc(N5CCOCC5)c4n3)CC2)c1=O [Example I-142, cis-1-methyl-3-(1-methyl-2-oxo-5-(trifluoromethyl)-1,2-dihydropyridin-3-yl)-1-(4-(7-morpholino-5H-pyrrolo[2,3-b]pyrazin-2-yl)cyclohexyl)urea] the Kd was 50 to 1000 nM. In the case of CNc1c[nH]c2ncc([C@H]3CC[C@H](N(C)C(=O)Nc4cc(C(F)(F)F)cn(C)c4=O)CC3)nc12 [Example I-144, trans-1-methyl-3-(1-methyl-2-oxo-5-(trifluoromethyl)-1,2-dihydropyridin-3-yl)-1-(4-(7-(methylamino)-5H-pyrrolo[2,3-b]pyrazin-2-yl)cyclohexyl)urea], the Kd is reported as under 10 nM. With CNc1c[nH]c2ncc([C@H]3CC[C@@H](N(C)C(=O)Nc4cc(C(F)(F)F)cn(C)c4=O)CC3)nc12 [Example I-145, 1-methyl-3-(1-methyl-2-oxo-5-(trifluoromethyl)-1,2-dihydropyridin-3-yl)-1-((1s,4s)-4-(7-(methylamino)-5H-pyrrolo[2,3-b]pyrazin-2-yl)cyclohexyl)urea] the Kd was under 10 nM. With Cn1cc(C(F)(F)F)cc(NC(=O)N2CCO[C@H]3CN(c4cnc(NC(=O)C5CC5)cn4)CC[C@@H]32)c1=O [Example I-148-a, ((4aS,8aS)-6-(5-(cyclopropanecarboxamido)pyrazin-2-yl)-N-(1-methyl-2-oxo-5-(trifluoromethyl)-1,2-dihydropyridin-3-yl)octahydro-1H-pyrido[3,4-b][1,4]oxazine-1-carboxamide and (4aR,8aR)-6-(5-(cyclopropanecarboxamido)pyrazin-2-yl)-N-(1-methyl-2-oxo-5-(trifluoromethyl)-1,2-dihydropyridin-3-yl)octahydro-1H-pyrido[3,4-b][1,4]oxazine-1-carboxamide] the Kd was under 10 nM.
